# Measurements published in publication PMC12164691 (Molecular Pharmacology, 2021).
# pIC50: −log10 of the molar value.
# Experiments:
# [1] = target: T1, TAS2R39 (Homo sapiens, UniProt P59534); assay: Calcium mobilization in HEK293 cells expressing TAS2R39 and Gα16-gust44; antagonism of […] TAF (also of […] denatonium, IC50 […]); type: cell-based
# T1 sequence (P59534 1-338): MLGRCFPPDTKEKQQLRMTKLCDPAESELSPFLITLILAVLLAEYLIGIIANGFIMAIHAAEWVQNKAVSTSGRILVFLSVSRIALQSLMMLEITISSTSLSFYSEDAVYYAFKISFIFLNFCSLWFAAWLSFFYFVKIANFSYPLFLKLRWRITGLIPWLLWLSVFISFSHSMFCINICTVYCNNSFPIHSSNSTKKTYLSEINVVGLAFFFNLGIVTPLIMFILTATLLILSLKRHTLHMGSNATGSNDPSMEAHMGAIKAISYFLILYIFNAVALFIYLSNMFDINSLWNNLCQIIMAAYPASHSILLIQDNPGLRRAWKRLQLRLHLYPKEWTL
# [2] = target: T1, TAS2R39
# [3] = target: TAS2R14 (Homo sapiens, UniProt Q9NYV8)
# [4] = target: TAS2R8 (Homo sapiens, UniProt Q9NYW2)
# Chain of TAS2R8 (Q9NYW2 whole entry): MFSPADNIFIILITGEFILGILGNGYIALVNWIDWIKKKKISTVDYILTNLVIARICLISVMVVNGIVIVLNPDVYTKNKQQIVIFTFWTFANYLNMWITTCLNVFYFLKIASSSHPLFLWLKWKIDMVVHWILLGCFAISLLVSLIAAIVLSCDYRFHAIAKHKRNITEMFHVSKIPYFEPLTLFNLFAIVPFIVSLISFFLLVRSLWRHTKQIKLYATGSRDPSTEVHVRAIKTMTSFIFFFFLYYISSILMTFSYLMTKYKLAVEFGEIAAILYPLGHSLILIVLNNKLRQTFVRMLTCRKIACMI
# Chain of TAS2R14 (Q9NYV8 whole entry): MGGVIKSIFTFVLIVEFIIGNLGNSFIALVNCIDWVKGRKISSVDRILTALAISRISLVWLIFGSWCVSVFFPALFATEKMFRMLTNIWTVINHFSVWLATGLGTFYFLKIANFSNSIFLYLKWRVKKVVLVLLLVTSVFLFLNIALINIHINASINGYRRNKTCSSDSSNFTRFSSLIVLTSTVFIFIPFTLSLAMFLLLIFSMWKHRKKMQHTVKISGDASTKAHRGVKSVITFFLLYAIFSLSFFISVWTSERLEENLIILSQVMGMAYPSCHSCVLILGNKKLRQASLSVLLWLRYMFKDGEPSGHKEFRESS
SMILES,pIC50 [1],Calcium mobilization in HEK293 cells expressing TAS2R39 and Gα16-gust44; concent [2],Calcium mobilization in HEK293 cells expressing TAS2R14 and Gα16-gust44; concent [3],Calcium mobilization in HEK293 cells expressing TAS2R8 and Gα16-gust44; concentr [4]
"Cc1ccc2oc(-c3ccccc3)cc(=O)c2c1 [6-MF, 6-methylflavone]",4.66,–,–,–
"CC(C)OC(=O)[C@H](C)N[P@](=O)(CO[C@H](C)Cn1cnc2c(N)ncnc21)Oc1ccccc1 [TAF, tenofovir alafenamide]",–,"TAF activates TAS2R1, TAS2R8, TAS2R14, and TAS2R39 concentration-dependently.",cells expressing TAS2R8 and TAS2R14 showed small but significant responses to TAF,cells expressing TAS2R8 and TAS2R14 showed small but significant responses to TAF
